In the supplement of paper PMC11061612:

Columns and labels:
Assay in all cases: combination Emax (second highest fraction inhibited in the dose matrix, 72 h); higher = more inhibition; extreme values may be limits of the assay
[1] = tested on: SW1990 (Pancreatic Carcinoma)
Method in brief: (§1)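 After 24 hours at 37°C and 5% CO2 in 1536-well plates, cells in DMEM/F12 or RPMI plus 10% FBS received two-drug dose matrices for 72 hours. Viability came from CellTiter-Glo 2.0 luminescence and was scaled as inhibition, anchored at 0 by vehicle wells and at 1 by blank wells. Combination Emax is taken as the second-highest inhibition in the matrix, and Bliss excess as the observed combination effect less EA + EB − EA·EB, with EA and EB the single-agent effects.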

[2] = tested on: DMS-273 (Small Cell Lung Carcinoma)
Method in brief: as §1

[3] = tested on: NCI-H1299 (Non-Small Cell Lung Carcinoma)
Method in brief: as §1

[4] = tested on: OCI-AML2 (Acute Myeloid Leukemia)
Method in brief: as §1

[5] = tested on: NCI-H1694 (Small Cell Lung Carcinoma)
Method in brief: as §1

[6] = tested on: MFH-ino (Other Solid Carcinomas)
Method in brief: as §1

[7] = tested on: DB (B-Cell Non-Hodgkin's Lymphoma)
Method in brief: as §1

DSH1 (Bladder Carcinoma) = tested on: DSH1 (Bladder Carcinoma)
Method in brief: as §1

[8] = tested on: SW756 (Cervical Carcinoma)
Method in brief: as §1

[9] = tested on: KARPAS-1106P (B-Cell Non-Hodgkin's Lymphoma)
Method in brief: as §1

[10] = tested on: SW780 (Bladder Carcinoma)
Method in brief: as §1

[11] = tested on: U-266 (Plasma Cell Myeloma)
Method in brief: as §1

[12] = tested on: 697 (B-Lymphoblastic Leukemia)
Method in brief: as §1

[13] = tested on: NCI-H1781 (Lung Adenocarcinoma)
Method in brief: as §1

NCI-H2595 (Mesothelioma) = tested on: NCI-H2595 (Mesothelioma)
Method in brief: as §1

RH-1 (Ewing's Sarcoma) = tested on: RH-1 (Ewing's Sarcoma)
Method in brief: as §1

SK-N-FI (Neuroblastoma) = tested on: SK-N-FI (Neuroblastoma)
Method in brief: as §1

[14] = tested on: KATOIII (Gastric Carcinoma)
Method in brief: as §1

[15] = tested on: CTV-1 (T-Lymphoblastic Leukemia)
Method in brief: as §1

IGR-1 (Melanoma) = tested on: IGR-1 (Melanoma)
Method in brief: as §1

Structure (SMILES) | combination Emax [1] | combination Emax [2] | combination Emax [3] | combination Emax [4] | combination Emax [5] | combination Emax [6] | combination Emax [7] | combination Emax (DSH1 (Bladder Carcinoma)) | combination Emax [8] | combination Emax [9] | combination Emax [10] | combination Emax [11] | combination Emax [12] | combination Emax [13] | combination Emax (NCI-H2595 (Mesothelioma)) | combination Emax (RH-1 (Ewing's Sarcoma)) | combination Emax (SK-N-FI (Neuroblastoma)) | combination Emax [14] | combination Emax [15] | combination Emax (IGR-1 (Melanoma))
CN(CCO)CC[C@H](CSc1ccccc1)Nc1ccc(S(=O)(=O)NC(=O)c2ccc(N3CCC([C@@H](O)c4ccccc4-c4ccc(Cl)cc4)CC3)cc2)cc1S(=O)(=O)C(F)(F)F [AZD4320] + Cn1cnc2c(F)c(Nc3ccc(Br)cc3Cl)c(C(=O)NOCCO)cc21 [Selumetinib] (first compound max 1 µM, 7x7, partner max 3 µM) | 0.557 | 0.349 | 0.3 | 1 | 0.957 | 0.421 | 0.953 | 0.565 | 0.47 | 0.769 | 0.78 | 0.938 | 1 | 0.568 | 0.275 | 0.854 | 0.554 | 0.29 | 0.706 | 0.986
COc1cccc(OCCCN)c1-c1cc(Nc2cnc(C#N)cn2)n[nH]1 [Prexasertib] + C=CCn1c(=O)c2cnc(Nc3ccc(N4CCN(C)CC4)cc3)nc2n1-c1cccc(C(C)(C)O)n1 [AZD1775] (first compound max 1 µM, partner max 1 µM) | 0.688 | 0.984 | 0.799 | 1 | 0.932 | 0.397 | 0.945 | 0.84 | 0.445 | 0.949 | 0.303 | 0.77 | 1 | 0.736 | 0.307 | 1 | 0.862 | 0.55 | 1 | 0.708
CC1(C)CCC(CN2CCN(c3ccc(C(=O)NS(=O)(=O)c4ccc(NCC5CCOCC5)c([N+](=O)[O-])c4)c(Oc4cnc5[nH]ccc5c4)c3)CC2)=C(c2ccc(Cl)cc2)C1 [Venetoclax] + C=CCn1c(=O)c2cnc(Nc3ccc(N4CCN(C)CC4)cc3)nc2n1-c1cccc(C(C)(C)O)n1 [AZD1775] (first compound max 1 µM, partner max 1 µM) | 0.783 | 0.749 | 0.641 | 1 | 0.516 | 0.184 | 1 | 0.48 | 0.436 | 0.917 | 0.148 | 0.85 | 1 | 0.449 | 0.189 | 1 | 0.713 | 0.382 | 0.992 | 0.396
CN(CCO)CC[C@H](CSc1ccccc1)Nc1ccc(S(=O)(=O)NC(=O)c2ccc(N3CCC([C@@H](O)c4ccccc4-c4ccc(Cl)cc4)CC3)cc2)cc1S(=O)(=O)C(F)(F)F [AZD4320] + CCN(CCO)CCCOc1ccc2c(Nc3cc(CC(=O)Nc4cccc(F)c4)[nH]n3)ncnc2c1 [AZD2811] (first compound max 1 µM, 7x7, partner max 1 µM) | 0.183 | 0.766 | 0.228 | 1 | 0.94 | 0.102 | 0.891 | 0.819 | 0.157 | 0.215 | 0.803 | 0.718 | 1 | 0.741 | 0.125 | 0.913 | 0.206 | 0.0347 | 0.27 | 0.926
CCN(CCO)CCCOc1ccc2c(Nc3cc(CC(=O)Nc4cccc(F)c4)[nH]n3)ncnc2c1 [AZD2811] + C[C@@H]1COCCN1C2=NC(=NC(=C2)C3(CC3)[S@](=N)(=O)C)C4=C5C=CNC5=NC=C4 [AZD6738] (first compound max 1 µM, 7x7, partner max 10 µM) | 0.513 | 0.771 | 0.642 | 0.984 | 0.73 | 0.529 | 0.726 | 0.673 | 0.171 | 0.711 | 0.334 | 0.426 | 1 | 0.775 | 0.21 | 1 | 0.687 | 0.424 | 0.84 | 0.374
CC(=O)c1c(C)c2cnc(Nc3ccc(N4CCNCC4)cn3)nc2n(C2CCCC2)c1=O [Palbociclib] + Cc1c2c(nn1C)CSCc1cc(n(C)n1)CSc1cc(c3ccccc3c1)OCCCc1c(C(=O)O)n(C)c3c-2c(Cl)ccc13 [AZD5991] (first compound max 10 µM, 7x7, partner max 1 µM) | 0.204 | 0.94 | 0.478 | 0.955 | 0.667 | 0.382 | 1 | 0.523 | 0.29 | 0.897 | 0.223 | 0.872 | 1 | 0.403 | 0.225 | 0.853 | 0.557 | 0.406 | 0.843 | 0.818
COc1cc2c(cc1OCCCCCOc1cc3c(cc1OC)C(=O)N1C=C(C)C[C@H]1C=N3)N=C[C@@H]1CC(C)=CN1C2=O [SG3199] + O=C(c1cc(Cc2n[nH]c(=O)c3ccccc23)ccc1F)N1CCN(C(=O)C2CC2)CC1 [Olaparib] (first compound max 0.001 µM, 7x7, partner max 10 µM) | 0.125 | 0.308 | 0.138 | 0.747 | 0.112 | 0.134 | 0.347 | 0.25 | 0.149 | 0.467 | 0.128 | 0.179 | 0.984 | 0.45 | 0.0944 | 0.189 | 0.0819 | 0.0764 | 0.127 | 0.187
Cn1cnc2c(F)c(Nc3ccc(Br)cc3Cl)c(C(=O)NOCCO)cc21 [Selumetinib] + C=CCn1c(=O)c2cnc(Nc3ccc(N4CCN(C)CC4)cc3)nc2n1-c1cccc(C(C)(C)O)n1 [AZD1775] (first compound max 10 µM, partner max 1 µM) | 0.431 | 0.739 | 0.652 | 1 | 0.371 | 0.345 | 0.793 | 0.503 | 0.346 | 0.782 | 0.369 | 0.847 | 1 | 0.485 | 0.18 | 1 | 0.69 | 0.451 | 0.963 | 0.578
CC1(C)CCC(CN2CCN(c3ccc(C(=O)NS(=O)(=O)c4ccc(NCC5CCOCC5)c([N+](=O)[O-])c4)c(Oc4cnc5[nH]ccc5c4)c3)CC2)=C(c2ccc(Cl)cc2)C1 [Venetoclax] + CN(C)CCCOc1ccc(-c2ccc3ncc4c(c3c2)n(C2CCOCC2)c(=O)n4C)cn1 [AZD0156] (first compound max 1 µM, 7x7, partner max 1 µM) | 0.674 | 0.355 | 0.214 | 0.993 | 0.14 | 0.171 | 0.971 | 0.156 | 0.158 | 0.552 | 0.212 | 0.56 | 0.988 | 0.277 | 0.177 | 0.221 | 0.217 | 0.154 | 0.0786 | 0.211
CC(=O)c1c(C)c2cnc(Nc3ccc(N4CCNCC4)cn3)nc2n(C2CCCC2)c1=O [Palbociclib] + Cn1cnc2c(F)c(Nc3ccc(Br)cc3Cl)c(C(=O)NOCCO)cc21 [Selumetinib] (first compound max 10 µM, 7x7, partner max 10 µM) | 0.334 | 0.351 | 0.463 | 1 | 0.306 | 0.429 | 0.785 | 0.479 | 0.343 | 0.601 | 0.356 | 0.648 | 0.833 | 0.235 | 0.155 | 0.228 | 0.531 | 0.465 | 0.905 | 0.919
Cn1cnc2c(F)c(Nc3ccc(Br)cc3Cl)c(C(=O)NOCCO)cc21 [Selumetinib] + C[C@@H]1COCCN1C2=NC(=NC(=C2)C3(CC3)[S@](=N)(=O)C)C4=C5C=CNC5=NC=C4 [AZD6738] (first compound max 10 µM, 7x7, partner max 10 µM) | 0.502 | 0.811 | 0.543 | 1 | 0.728 | 0.421 | 0.274 | 0.761 | 0.287 | 0.648 | 0.381 | 0.717 | 1 | 0.396 | 0.165 | 0.899 | 0.746 | 0.415 | 0.906 | 0.707
COc1cccc(OCCCN)c1-c1cc(Nc2cnc(C#N)cn2)n[nH]1 [Prexasertib] + CCc1c2c(nc3ccc(O)cc13)-c1cc3c(c(=O)n1C2)COC(=O)[C@]3(O)CC [SN-38] (first compound max 1 µM, 7x7, partner max 0.3 µM) | 0.741 | 0.997 | 0.79 | 1 | 1 | 0.704 | 0.983 | 0.924 | 0.802 | 0.897 | 0.969 | 0.703 | 1 | 0.993 | 0.426 | 1 | 0.886 | 0.562 | 0.999 | 0.893
